Measurements taken from the NIST ThermoML archive (doi:10.1016/j.jct.2007.11.002).

Experiment: xn = mol fraction of the nth substance listed
Settings: 101 kPa, Liquid; for viscosity: Capillary tube (Ostwald / Ubbelohde) method

CN1CCOCC1 [N-methylmorpholine] + C1CCCCC1
Settings	mass density, 298.15 K [kg/m3]	mass density, 303.15 K [kg/m3]	mass density, 313.15 K [kg/m3]	mass density, 323.15 K [kg/m3]	viscosity, 298.15 K [mPa·s]	viscosity, 303.15 K [mPa·s]	viscosity, 313.15 K [mPa·s]	viscosity, 323.15 K [mPa·s]
x2 = 0.0453	907.59	902.83	893.49	874.42	0.868	0.854	0.824	0.802
x2 = 0.1276	895.48	890.66	882.09	863.12	0.85	0.838	0.803	0.778
x2 = 0.1689	889.43	884.59	876.36	857.48	0.84	0.828	0.792	0.764
x2 = 0.2217	881.74	876.96	869.02	850.4	0.83	0.814	0.779	0.75
x2 = 0.2763	873.94	869.13	861.42	843.13	0.824	0.804	0.765	0.732
x2 = 0.3217	867.42	862.66	855.1	837.1	0.821	0.797	0.755	0.718
x2 = 0.3873	857.99	853.23	845.94	828.33	0.819	0.791	0.742	0.701
x2 = 0.4326	851.46	846.82	839.61	822.36	0.819	0.786	0.736	0.691
x2 = 0.4833	844.29	839.67	832.51	815.69	0.821	0.784	0.729	0.681
x2 = 0.5218	838.78	834.2	827.11	810.59	0.824	0.784	0.726	0.673
x2 = 0.5844	829.95	825.42	818.32	802.4	–	0.785	0.721	0.665
x2 = 0.5943	–	–	–	–	0.829	–	–	–
x2 = 0.6328	823.16	818.66	811.52	796.08	–	0.786	0.719	0.659
x2 = 0.6341	–	–	–	–	0.835	–	–	–
x2 = 0.6877	–	–	–	–	0.842	–	–	–
x2 = 0.6911	815.03	810.51	803.31	788.47	–	0.789	0.717	0.653
x2 = 0.7129	–	–	–	–	0.847	–	–	–
x2 = 0.7428	807.87	803.38	796.01	781.8	–	0.79	0.714	0.646
x2 = 0.7648	–	–	–	–	0.855	–	–	–
x2 = 0.7895	–	–	–	–	0.861	–	–	–
x2 = 0.7944	800.77	796.31	788.72	775.2	–	0.794	0.71	0.638
x2 = 0.8392	794.64	790.27	782.38	769.54	–	0.797	0.708	0.631
x2 = 0.8444	–	–	–	–	0.868	–	–	–
x2 = 0.8643	791.35	786.94	778.83	766.42	–	0.797	0.706	0.626
x2 = 0.8873	–	–	–	–	0.875	–	–	–
x2 = 0.9033	786.15	781.75	773.3	761.57	–	0.801	0.704	0.619
x2 = 0.9348	–	–	–	–	0.889	–	–	–
x2 = 0.9532	779.63	775.19	766.22	755.42	–	0.805	0.7	0.611
x2 = 0.9741	–	–	–	–	0.898	–	–	–
x2 = 0.9823	775.75	771.51	762.08	751.98	–	0.805	0.698	0.607

CN1CCOCC1 [N-methylmorpholine] + Cc1ccccc1
Settings	mass density, 298.15 K [kg/m3]	mass density, 303.15 K [kg/m3]	mass density, 313.15 K [kg/m3]	mass density, 323.15 K [kg/m3]	viscosity, 298.15 K [mPa·s]	viscosity, 303.15 K [mPa·s]	viscosity, 313.15 K [mPa·s]	viscosity, 323.15 K [mPa·s]
x2 = 0.0457	912.04	907.63	898.17	879.98	0.847	0.839	0.807	0.795
x2 = 0.1167	908.88	904.69	895.22	877.67	0.806	0.798	0.774	0.759
x2 = 0.1822	905.97	901.78	892.37	875.42	0.772	0.765	0.739	0.723
x2 = 0.2455	903.08	898.89	889.47	873.11	0.739	0.732	0.705	0.687
x2 = 0.2843	901.28	897.11	887.68	871.67	0.721	0.712	0.684	0.665
x2 = 0.3211	899.58	895.42	885.99	870.33	0.704	0.692	0.664	0.643
x2 = 0.3862	896.61	892.43	882.99	867.93	0.678	0.664	0.634	0.612
x2 = 0.4327	894.39	890.21	880.77	866.14	0.659	0.645	0.614	0.59
x2 = 0.4841	891.92	887.74	878.29	864.14	0.643	0.627	0.596	0.57
x2 = 0.5512	888.55	884.36	874.87	861.34	0.622	0.606	0.573	0.546
x2 = 0.5943	886.32	882.15	872.61	859.47	0.612	0.594	0.56	0.531
x2 = 0.6341	884.21	880.05	870.53	857.79	0.602	0.586	0.551	0.521
x2 = 0.6877	881.26	877.11	867.65	855.41	0.594	0.575	0.539	0.507
x2 = 0.7129	879.83	875.68	866.2	854.17	0.588	0.571	0.535	0.503
x2 = 0.7648	876.73	872.59	863.14	851.63	0.583	0.561	0.524	0.488
x2 = 0.7895	875.15	871.01	861.57	850.28	0.581	0.559	0.521	0.487
x2 = 0.8444	871.87	867.75	858.32	847.56	0.571	0.549	0.51	0.474
x2 = 0.8873	869.14	865.03	855.6	845.26	0.569	0.543	0.503	0.458
x2 = 0.9348	866.19	862.08	852.67	842.77	0.558	0.536	0.49	0.444
x2 = 0.9741	863.67	859.57	850.02	840.51	0.554	0.527	0.477	0.429
